# Patent US20090162351A1, “Transdiscal administration of inhibitors of p38 MAP kinase” (DePuy Spine, Inc., priority 2007, published 2009)
# “Also recorded” adds a separate entry of the source.
# Key:
# [1] = system: bovine chondrocyte pellets / ARC tissues stimulated with IL-1β; assay: Chondrocyte pellet / ARC culture model: GAG degradation assay; type: cell-based; settings: for GAG Release, Pellet Assay (in words): Table 3B; for concentration as low as which proteoglycan degradation was inhibited: chondrocyte pellets, 10 ng/ml IL-1β, five days; for effect on IL-1β-stimulated GAG degradation/release (in words): chondrocyte pellet / ARC model
# Text: A chondrocyte pellet culture model was developed for in vitro high throughput screening of therapeutic compounds for inhibition of IL-1β-stimulated matrix degradation. The chondrocyte pellet culture model can be used to detect various potential therapeutic compounds effective in blocking different processes caused by IL-1β stimulation. For example, IL-1β stimulation results in increased glycosaminoglycan (GAG) degradation, prostaglandin E2 (PGE2) synthesis and total nitrite/nitrate production. Compounds with different mechanisms of action may inhibit the increase of one or two or all three of these parameters. For this reason, screening by, for example, measuring only GAG release would be limited to detection of a specific class of inhibitors and may not detect compounds with diversified mechanisms of function which may be involved in inhibition of the IL-1 stimulated inflammatory process. The development of the chondrocyte pellet culture assay system in a 96-well plate made possible large-scale screening of potential therapeutic compounds with different mechanisms of action.
# Calf articular cartilage was obtained from the knee joints of eight to twelve month old animals and was processed within twenty-four hours after sacrifice. After removal of muscle and ligament, the cartilage was kept moist using phosphate buffer solution (PBS) to prevent tissue dehydration, and was aseptically peeled off from subchondral bone with a scalpel, and the cartilage pieces were further minced into smaller pieces (˜0.3-0.5×˜0.2-0.5 cm cubes). […] Chondrocytes were then enzymatically isolated from the tissue by incubation for overnight at 37° C. with gentle agitation in 0.2% collagenase in Dulbecco's modified eagle media (DMEM). After removal of tissue debris by filtration through cell strainer and the residual collagenase by 3× wash in PBS, cells were finally resuspended at a density of 2.5×10^6 cells/ml in chondrocyte medium. A 1 ml aliquot of the cell suspension was dispensed into either a 15 ml Falcon centrifuge tube or a 96 deep-well plate and centrifuged at 2000×g for five minutes. The chondrocyte pellets were incubated at 37° C. in a humidified atmosphere of 5% CO2 for two to three weeks with a medium change every other day.
# As an alternative to using calf articular cartilage, a commercial Aliginate Recovered Chondrocytes (ARC) system was also used (Articular Engineering, LLC (Northbrook, Ill.)). Use of the commercial system cut down on labor and time in producing chondrocyte pellet. This system produced cartilaginous tissue in vitro using bovine chondrocytes. The first step consisted of culturing chondrocytes in alginate under conditions optimal for the formation of a cell-associated matrix (CM). The second step allowed these cells with their CM, after recovery, to rapidly form and become integrated into a solid mass of cartilage on a porous insert within two weeks.
# This tissue is rich in cells surrounded by a cell-associated matrix that is degraded rapidly when the cells are exposed to IL-1. ARC tissues in 3 mm punches at delivery were first dispensed into a 96 deep-well plate, one punch per well, for compound treatment. The subsequent procedures were the same as those used for the chondrocyte pellets.
# Chondrocyte pellets were washed once with 1 ml of Chondrocyte Stimulation Medium and equilibrated in the same medium at room temperature for fifteen to thirty minutes. Compounds were dissolved in H2O, Ethanol or dimethyl sulfoxide (DMSO) (10^−2 M) according to suppliers' instructions and further diluted with Chondrocyte Stimulation Medium to the required concentrations. DMSO concentrations in the culture media should not exceed 1%; this concentration of DMSO has no effect on cartilage proteoglycan metabolism in response to cytokines.
# The pellets were first treated with compounds at desired concentrations at 37° C. for one hour and then incubated for three to five days in the absence or presence of 10 ng/ml of IL-1β. […]
# [2] = system: injured bovine articular cartilage explants in inflammatory medium; assay: Drop tower model: GAG degradation in injured cartilage explants; type: cell-based; set-up: inhibition of GAG release vs no treatment explant: dose or concentration left out as unconfirmed; settings: for Inhibition of GAG degradation (in words): Table 4, injured cartilage explants, inflammatory conditions; for efficacy in inhibiting GAG release (in words): drop tower model; for Inhibition of GAG degradation: at 0.1-1 μM
# Text: In order to assess cartilage breakdown by inflammatory mediators and the effect of antagonists on those mediators, a cartilage impact model (the “drop tower model”) was established using a drop tower device to apply a peak compressive stress to a cartilage sample of about 20-30 MPa over an area of about 11-15 mm^2. Advantages of this model included its clinical relevance due to its potential to mimic several key parameters of osteoarthritis such as inflammatory cell mediators (by co-culturing with inflammatory cells), and induction of trauma to create the cartilage damage.
# In the “drop tower design model” cartilage explants were first injured and then cultured in inflammatory medium to mimic the progression of joint impact trauma linked to cartilage degeneration and osteoarthritis. The approach of the model is to artificially produce cellular damage without gross structural alterations, and to determine how the cells respond to such an insult over the ensuing days when treated with or without potential therapeutic agents.
# The device comprises a vertical rail that guides a sliding weight from 0.1 kg to 3 kg directly onto a force transducer which is situated at the bottom of the device. A sphere-shaped 2 mm indenter resting on a specimen is located at the bottom of the vertical rail. The indenter is held by a stop screw. The specimen is rigidly attached to a tissue holder underneath the indenter, to avoid side movements, the specimen is rigidly attached to the tissue holder. In this manner, the force transducer transduces a force indirectly onto the specimen. Adjusting the weight of a mass and height from which the mass drops varies the magnitude of the intended impact. For example, a weight mass (e.g., […]) held by a weight holder can be released from a height of e.g., 36 cm and dropped onto the force transducer.
# Samples for compound evaluation were tested using either of two different methods to induce inflammatory conditions. One method utilized media conditioned from peripheral blood mononuclear cells (PBMCs) stimulated with LPS (“+LPS”) or non-inflammatory media without LPS (“−LPS”). Another method utilized the absence or presence of a cocktail of cytokines.
# In the first method, bovine or human PBMCs were freshly prepared using Ficoll gradient by Lampire Biological Laboratories, Inc. PBMCs in RPMI w/10% FCS at delivery were spun down at 1500 rpm for twenty minutes and the cell pellet was washed twice with 1×PBS to wash off the residual Ficoll. The cells were then resuspended at a density of 1×10^6/ml in RPMI supplemented with 10% FCS, 1× Antibiotics-Antimycotics. The suspension was divided into two aliquots. One aliquot was stimulated with 10 μg/ml of LPS and the other was not stimulated. Both aliquots were then incubated at 37° C., 5% CO2 for twenty-four to seventy-two hours. The conditioned media with or without LPS stimulation are collected, aliquoted, and stored in −80° C. for a maximum of three months. Each conditioned medium was assessed for levels of pro-inflammatory cytokines to ensure their secretion from PBMC. A representative cytokine, IL-6, was assayed by ELISA using a Human IL-6 Quantikine kit and it was shown that the LPS-stimulated medium had at least 10 ng/ml of IL-6, while IL-6 was undetectable in the unstimulated medium.
# In the second method, the explants were cultured at 37° C., 5% CO2 either in stimulated or non-stimulated conditioned medium as described above or in defined medium containing DMEM supplemented with 1% FCS, 1× insulin-transferrin-sodium selenite media supplement and Antibiotics-Antimycotics in the presence or absence of a cocktail of cytokines containing 10 ng/ml of IL-1β, 100 ng/ml of TNFα and 5 ng/ml of IFN-γ. The compounds were solubilized in H2O, Ethanol or DMSO (10^−2 M) according to suppliers' instructions and further diluted with either conditioned medium stimulated with or without LPS to the required concentrations. DMSO concentrations in the culture media never exceeded 1%. […]
# [3] = Bos taurus, Chondrocyte, read-out: GAG Release (inhibition), Pellet Assay
# [4] = Bos taurus, injured cartilage explants
compound,measurement,setting,value
"COc1ccc(-n2nc(CCC(=O)N(C)O)cc2-c2ccc(Cl)cc2)cc1 [Tepoxalin, reference compound]",inhibition at 10 µM,[1]; [3],15%
same,inhibition at 10 µM,[2]; [4],100%
"Cc1ccc(C(=O)c2ccc(CC(=O)O)n2C)cc1 [Tolmetin, reference compound]","GAG Release, Pellet Assay (in words)",[1],No effect
same,inhibition at 10 µM,[2]; [4],60%
"O=C(O)c1cc(O)c2c(c1)C(=O)c1cccc(O)c1C2=O [Rhein, reference compound]",concentration as low as which proteoglycan degradation was inhibited,[1],0.035 µM
same,inhibition at 35 µM,"[2]; Bos taurus, at 35 μM, injured cartilage explants",100%
"OCCC#Cc1nc(-c2ccc(F)cc2)c(-c2ccncc2)n1CCCc1ccccc1 [JNJ 3026582 (RWJ 67657), 4-[4-(4-fluorophenyl)-1-(3-phenylpropyl)-5-(4-pyridinyl)-1H-imidazol-2-yl]-3-butyn-1-ol]",inhibition at 10 µM,[1]; [3],~90%
same,effect on IL-1β-stimulated GAG degradation/release (in words),[1],significantly inhibited; also recorded: significant effect
same,Inhibition of GAG degradation (in words),[2],little
same,efficacy in inhibiting GAG release (in words),[2],little efficacy
C[C@@H]1CN(Cc2ccc(F)cc2)[C@@H](C)CN1C(=O)c1cc2c(C(=O)C(=O)N(C)C)cn(C)c2cc1Cl [SCIO-469 (SD 469)],"GAG Release, Pellet Assay (in words)",[1],No effect
same,effect on IL-1β-stimulated GAG degradation/release (in words),[1],no effect
"CC(=O)Oc1cccc2c1C(=O)c1c(OC(C)=O)cc(C(=O)O)cc1C2=O [Diacerein, reference compound]",concentration as low as which proteoglycan degradation was inhibited,[1],0.054 µM
same,inhibitory effect for GAG vs lower concentrations (in words),"[1]; diacerein at 5.4 μM, rhein at 3.5 μM",weaker inhibitory effect
same,inhibition at 54 µM,"[2]; Bos taurus, at 54 μM, injured cartilage explants",100%
same,proteoglycan degradation in injured cartilage induced by inflammatory mediators (in words),"[2]; at high dosage, LPS-stimulated PBMC conditioned medium, five days",completely inhibited
"CO[C@H]1C[C@@H]2CC[C@@H](C)[C@@](O)(O2)C(=O)C(=O)N2CCCC[C@H]2C(=O)O[C@H]([C@H](C)C[C@@H]2CC[C@@H](O)[C@H](OC)C2)CC(=O)[C@H](C)/C=C(\C)[C@@H](O)[C@@H](OC)C(=O)[C@H](C)C[C@H](C)/C=C/C=C/C=C/1C [Rapamycin, reference compound]",inhibition at 10 µM,[1]; [3],50%
same,Inhibition of GAG degradation,[2]; injured cartilage explants,100% inh at 0.1-1 μM
same,inhibition of GAG release vs no treatment explant,[2]; five days,~84%
C[C@H](Nc1nccc(-c2c(-c3ccc(F)cc3)nc3nc(N)ccn23)n1)c1ccccc1 [JNJ 7583979 (RWJ 351958)],inhibition at 1 µM,"[1]; Bos taurus, Chondrocyte, at 1 μM, read-out: GAG Release (inhibition), Pellet Assay",10%
same,inhibition at 10 µM,[1]; [3],64%
same,effect on IL-1β-stimulated GAG degradation/release (in words),[1],significantly inhibited; also recorded: significant effect
same,Inhibition of GAG degradation (in words),[2],little
same,efficacy in inhibiting GAG release (in words),[2],little efficacy
C[C@@H]1CN(Cc2ccc(F)cc2)[C@@H](C)CN1C(=O)c1cc2cc(C(=O)C(=O)N(C)C)[nH]c2cc1Cl [SCIO-282 (SD 282)],"GAG Release, Pellet Assay (in words)",[1],No effect
same,effect on IL-1β-stimulated GAG degradation/release (in words),[1],little effect
"CC(C(=O)O)c1ccc(C(=O)c2cccs2)cc1 (stereo not drawn) [Suprofen, reference compound]","GAG Release, Pellet Assay (in words)",[1],No effect
same,Inhibition of GAG degradation,[2]; injured cartilage explants,100% inh at 0.1-1 μM
CC(=O)N1CCN(c2c(-c3ccncc3)c(-c3ccc(F)cc3)c(C#N)n2C)CC1 [JNJ 17089540 (RWJ 669307)],"GAG Release, Pellet Assay (in words)",[1],No effect
same,effect on IL-1β-stimulated GAG degradation/release (in words),[1],little effect
